Reference: patent publication US20260373132A1, “PERK INHIBITORHC-5404 IN COMBINATION WITH ANTI-PD-1 ANTIBODY AND/OR AN ANTIANGIOGENETIC AGENT FOR USE IN THE TREATMENT OF CANCER” (HIBERCELL, INC., priority 2022, published 2026)

Legend:
[1] = tested on: 468 unique kinases; experiment: KINOMEScan biochemical panel assay; assay type: binding, human
Experimental: The selectivity of HC-5404 against the broader kinome was then evaluated using a KINOMEScan biochemical panel assay that measured binding against 468 unique kinases, including 403 wild-type human kinases and 59 mutant isoforms.

[2] = tested on: pPERK in A498 tumors; experiment: pPERK in A498 tumor xenografts; assay type: in vivo, mouse
Experimental: Samples were put in 500 μL of Novex lysis buffer consisting of 2× Novex Tris-Glycine SDS sample buffer (ThermoFisher LC2676), 1× Phosphatase Inhibitor Cocktail III (Sigma P0044), 1× PhosphataseArrest I (Gbioscience 113P-D), 1×2-mercaptoethanol (Gibco 21985023), 1× Benzonase (EMD Millipore Corp 70746-3), and 1× Protease inhibitor cocktail tablet (Roche/Sigma 11836170001). Samples were homogenized with the Polytron and heated for 10 min at 95 °C. They were then centrifuged at max speed for 10 min and the supernatant was transferred. Protein concentrations of samples were measured using the Pierce 660 nm Protein assay kit (Thermo Scientific 22660) according to the manufacturer's instructions.
Western Blot analysis was performed on the SimpleWestern high-throughput protein analysis platform (ProteinSimple 004-650) according to manufacturer's protocol using a 12-230 kDA Separation Module (ProteinSimple SM-W004) and Total Protein Detection Module (ProteinSimple DM-TP01). Antibodies used were: (Add info for other antibodies used) pPERK (Lilly; 1:50) and PERK (Cell Signaling Technology 5683; 1:200). All protein analytes were normalized to total protein loaded on capillary. […]

[3] = tested on: SMTCA75; experiment: RCC PDX single animal trial, SMTCA75; assay type: in vivo, mouse; conditions: HC-5404 30 mg/kg PO BID, n=1
Description: This example investigated the effect of HC-5404 in combination with VEGFR-TKIs in inhibiting tumor growth using 12 RCC PDX tumor models, following procedures analogous to those described above.
Single animal per group (n=1) trial of animals harboring diverse RCC PDX models were used in this study.

[4] = tested on: human cord blood-derived MDSCs / CD3 T cells; experiment: human T cell suppression assay with human cord blood-derived MDSCs; assay type: cell-based; conditions: 500 or 750 nM (FIG. 10A, 10C)
Experimental: Human MDSC Preparation: Fresh cord blood was obtained from NDRI (Protocol ID #RCHA4 01). Mononuclear cells were enriched from cord blood by Lymphoprep density gradient centrifugation, followed by CD34+ cell isolation using EasySep Human Cord Blood CD34 Positive selection Kit II, and the enriched CD34+ cells were cultured in a 48-well plate (BD Falcon, Bedford, MA) at 1×10^5 cells/well/ml of IMDM complete medium (IMDM supplemented with 10% FBS, 1× penicillin-streptomycin and 2 mM L-glutamax). 100 ng/ml human GM-CSF, 100 ng/ml human G-CSF and 50 ng/ml human SCF were added to the IMDM complete medium and cells were expanded for 13-14 days in a 37 °C, 5% CO2 humidified incubator and medium was refreshed on day 7. MDSC differentiation was induced by culturing the expanded CD34+ cells in a 24 well plate at 0.1-0.15×10^6 cells/well in 2 ml of IMDM complete medium supplemented with 100 ng/ml human GM-CSF, 50 ng/mL G-CSF and 30 ng/ml IL-6 for additional 6-7 days with medium changed on day 3. […]
Human T cell Suppression Assay. […] T cell proliferation was analyzed by flow cytometry. […] The labeled cells were analyzed on a BD Fortessa cytometer and data was analyzed by FlowJo. […] Data were analyzed using one-way ANOVA with multiple comparison corrected with Dunnett test. *P<0.05; **P<0.01; ***P<0.005, ****P<0.0001 (FIGS. 10A, 10B, and 10C).

Compound: Cc1cc(NC(=O)[C@H](O)c2cc(F)cc(F)c2)ccc1-c1cnc(N)c(C(=O)NC(C)C)c1 [HC-5404, (R)-2-amino-5-(4-(2-(3,5-difluorophenyl)-2-hydroxyacetamido)-2-methylphenyl)-N-isopropylnicotinamide]
- interactions in kinome panel ([1]; 100 nM, PERK not in panel): no interactions observed
- number of kinases inhibited >65% ([1]; 10,000 nM): 9 kinases
- pPERK expression in A498 ([2]; 30 mg/kg PO BID, seven days (FIG. 30)): strongly inhibited pPERK expression
- pPERK levels in A498 ([2]; DC-101 study, 4 days of treatment (FIG. 37)): inhibited the pPERK signal
- antitumor efficacy as monotherapy [3]: exhibited antitumor efficacy
- inhibition of T-cells by MDSCs [4]: reduced inhibition of T-cells
